Consider 17 compounds from article PMC5345022 (Scientific Reports, 2017).

pEC50, pKi: −log10 of the molar value. Entries after “also recorded” stand apart in the source; their conditions may differ.

In general, pKi refers to the Ki on a negative log10 scale, so that one unit is a factor of ten. Low values mean a large Ki, high ones a small Ki. For orientation: Emax means the size of the effect at its maximum, as opposed to the concentration needed. Usually pEC50 stands for the negative decadic logarithm of the EC50, by convention in mol/L. A lower pEC50 goes with a large EC50.

Experiment [1] has as its target T1, human dopamine D2L receptor (Homo sapiens, UniProt P14416). Description: biochemical.
Procedure: (§2) Receptor binding studies were carried out as described previously[43][44].
(§3) The resulting competition curves of the receptor binding experiments were analysed by nonlinear regression using the algorithms in PRISM 6.0 (GraphPad Software, San Diego, CA). […] IC50 values were transformed to Ki values according to the equation of Cheng and Prusoff[48].
The target in experiment [2] is T1, human dopamine D2L receptor. Kind of experiment: Radioligand binding assay with [3H]spiperone, membranes of CHO cells stably expressing the receptor. The following applies: for binding affinity (in words): D2R radioligand binding.
Procedure: as §2, §3
The target in experiment [3] is T2, dopamine receptor subtype D2S (Homo sapiens, UniProt P14416). Description: β-Arrestin-2 recruitment assay (PathHunter), agonist and antagonist mode. Format: cell-based. More on the design: expressed in transfected cells. Particulars: for Emax: D2S-mediated recruitment of β-arrestin-2, PathHunter assay, relative to the maximum effect of quinpirole; for β-arrestin recruitment (in words): agonist mode. As for the experimental part: The measurement of β-arrestin-2 recruitment stimulated by D2R activation was performed using the PathHunter® assay purchased from DiscoveRx (Birmingham, U.K.) according to the manufacturer’s protocol as described previously.
T2 sequence (P14416 1-414 isoform P14416-2): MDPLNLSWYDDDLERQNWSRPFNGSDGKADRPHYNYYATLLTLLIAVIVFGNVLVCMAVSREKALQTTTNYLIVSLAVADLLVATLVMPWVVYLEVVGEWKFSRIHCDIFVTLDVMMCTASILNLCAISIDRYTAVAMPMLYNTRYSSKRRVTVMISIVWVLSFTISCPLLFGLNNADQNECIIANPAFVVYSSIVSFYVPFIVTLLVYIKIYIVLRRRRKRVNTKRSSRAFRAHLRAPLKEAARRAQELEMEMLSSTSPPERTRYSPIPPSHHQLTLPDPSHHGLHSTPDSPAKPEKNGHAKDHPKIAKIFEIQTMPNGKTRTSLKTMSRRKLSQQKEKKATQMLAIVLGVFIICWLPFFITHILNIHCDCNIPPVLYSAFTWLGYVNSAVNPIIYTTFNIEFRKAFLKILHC
The amount of recruitment of β-arrestin was derived from the agonist-induced increase of chemiluminescence, which was expressed in counts per second (cps). Dose-response curves were normalised to basal cps stimulated by buffer (=0%) and the effect of the maximum effect of the reference compound quinpirole (=100%).
(§1) From each curve, a set of mean values was derived and pooled to result in an average curve showing the EC50 and Emax value, respectively.

Experiment [4] deals with T2, dopamine receptor subtype D2S. Description: cAMP inhibition assay: inhibition of forskolin-stimulated cAMP accumulation (CAMYEL BRET sensor). Format: cell-based. More on the design: expressed in transfected cells; host or cells: HEK293T cells, transient co-transfection with the CAMYEL sensor. The following applies: for Emax / Inhibition of forskolin-stimulated cAMP accumulation Emax (%): maximum effect relative to the effect of quinpirole. As for the experimental part: HEK293T cells were transiently co-transfected with pcDNA3L-His-CAMYEL[45] (purchased from ATCC, Manassas, VA via LGC Standards, Wesel, Germany) and D2s receptor, respectively, and the assay was performed according to literature. Twenty-four hours after transfection cells were split into white half-area 96-well plates at 2 × 10^5 cells/well and grown overnight in a phenol-red free medium supplemented with serum (Invitrogen, Darmstadt, Germany). On the day of measurement, the medium was removed and replaced by phosphate buffered saline (PBS). The cells were serum-starved for 1 h before treatment. The assay was started by adding 10 μL of coelenterazine-h (Promega, Mannheim, Germany) to each well to yield a final concentration of 5 μM. After 5 min of incubation, test compounds were added in PBS containing forskolin at a final concentration of 10 μM. After an incubation time of 15 min, BRET measurement was performed with a CLARIOstar plate reader (BMG LabTech, Ortenberg, Germany). […] Curves were normalised to basal BRET ratio obtained from dPBS (0%) and the maximum effect of the reference ligand quinpirole (100%).
Data from cAMP measurements were analysed by normalising the BRET ratios with 0% for the unstimulated receptor and 100% for the full effect of the reference ligand quinpirole. Dose-response curves were calculated by nonlinear regression using the algorithms of PRISM 6.0.
as §1

T1 sequence (P14416 whole entry): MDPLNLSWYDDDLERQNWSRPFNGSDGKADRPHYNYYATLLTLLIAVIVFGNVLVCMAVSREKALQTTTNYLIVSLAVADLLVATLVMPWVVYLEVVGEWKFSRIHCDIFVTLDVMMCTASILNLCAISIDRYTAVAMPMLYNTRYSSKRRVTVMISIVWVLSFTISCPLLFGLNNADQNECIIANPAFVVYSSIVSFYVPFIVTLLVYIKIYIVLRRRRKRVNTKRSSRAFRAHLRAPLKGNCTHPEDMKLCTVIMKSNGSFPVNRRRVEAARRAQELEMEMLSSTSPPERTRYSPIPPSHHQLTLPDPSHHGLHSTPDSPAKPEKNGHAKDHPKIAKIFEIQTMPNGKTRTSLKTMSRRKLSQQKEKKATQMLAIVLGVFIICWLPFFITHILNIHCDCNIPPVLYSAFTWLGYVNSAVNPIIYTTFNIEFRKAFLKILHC

In experiment [1], `COC(=O)C1=CO[C@@H](C)[C@H]2CN3CCc4c([nH]c5ccccc45)[C@@H]3C[C@H]12` [Ajmalicine] had a pKi of under 4.00.

`CC(C)(C)NCC(O)c1cc(Cl)c(N)c(Cl)c1` (stereo not shown) [Clenbuterol, reference compound] gave a pKi in experiment [2] of 4.30.

Consider `Oc1cc(O)c2cc(O)c(-c3cc(O)c(O)c(O)c3)[o+]c2c1` [Delphinidin], for which, in experiment [3], the Emax was under 7%. Besides, the pKi in experiment [1] was 4.59.

Turning to `COc1ccc2c(c1OC)CN1CCc3cc4c(cc3C1=C2)OCO4` [Dihydroberberine], the pKi in experiment [1] was 4.12.

Turning to `CC[C@H]1CN2CCc3cc(OC)c(OC)cc3[C@@H]2C[C@@H]1C[C@H]1NCCc2cc(OC)c(OC)cc21` [Emetine, reference compound], the pKi in experiment [2] is 4.43.

Turning to `CC(Cc1ccc(C(C)(C)C)cc1)CN1C[C@@H](C)O[C@@H](C)C1` (stereo partly shown) [Fenpropimorph], the pKi in experiment [2] was under 4.00.

In the case of `CC(=O)OC1C(C)CN(C)C2Cc3c[nH]c4cccc(c34)C12` (stereo not shown) [Fumigaclavine A], the pEC50 in experiment [4] was 6.60. Moreover, in experiment [4] (D2S expressed in HEK cells), the “agonist activity in the cAMP accumulation assay / Gi/o activation (in words)” value is on record as “weak partial agonists”. Besides, the “agonist activity in the cAMP accumulation assay / Gi/o activation (in words)” value in experiment [4] (D2S expressed in HEK cells, listed as fumigaclavine A) is reported as “partial agonism in Gi/o activation”. In experiment [3], the Emax was under 7% and the “β-arrestin recruitment (in words)” value is given as “did not show β-arrestin recruitment”. In experiment [2], this compound had a pKi of 5.96. Also, in experiment [2] (D2L radioligand binding), the “Ki value relative to the endogenous ligand dopamine” value is “seven times higher”.

As to `O=C(CC1NCCCC1O)Cn1cnc2cc(Br)c(Cl)cc2c1=O` (stereo not shown) [Halofuginone, reference compound], the pKi in experiment [2] was under 4.30.

`CN(C)CCc1ccc(O)cc1` [Hordenine] had a pEC50 in experiment [4] of 5.43. Further, the “agonist activity in the cAMP accumulation assay / Gi/o activation (in words)” value in experiment [4] (D2S expressed in HEK cells) is reported as “shows agonist properties; also recorded: almost full D2R-agonist in Gi/o activation”. Further, in experiment [4] (HEK293, read-out: Inhibition of forskolin-stimulated cAMP accumulation Emax (%), D2S expressed in HEK cells), the Emax stood at 76%. Also, in experiment [3], the Emax was under 7% and the “β-arrestin recruitment (in words)” value was “did not show significant β-arrestin recruitment; also recorded: no β-arrestin-2 recruitment was determined”. Besides, the “antagonism of quinpirole-stimulated β-arrestin-2 recruitment (in words)” value in experiment [3] (antagonist mode: 30 min pre-incubation, then 300 nM quinpirole) is “antagonised D2-mediated β-arrestin recruitment; also recorded: antagonistic activity; also recorded: completely antagonised quinpirole-stimulated recruitment; also recorded: antagonism in β-arrestin recruitment”. In experiment [2], the pKi was 4.89 and the “binding affinity (in words)” value was “low micromolar range”.

The compound `O=C(CCc1ccc(O)c(O)c1)NCCCNCCCCNCCCNC(=O)CCc1ccc(O)c(O)c1` [Kukoamine A] showed a pKi in experiment [1] of under 4.00.

`COc1cc(C(=O)OCCCCNC(=N)N)cc(OC)c1O` [Leonurine]: the pKi in experiment [1] is under 4.00.

In experiment [2], `NCc1cc(=O)[nH]o1` [Muscimol] gave a pKi of under 4.00.

The compound `N[C@@H](CCCCn1c(C=O)ccc1CO)C(=O)O` [Pyrraline] showed a pKi in experiment [1] of under 4.00.

Turning to `N=C(N/N=C/c1ccc(Cl)cc1)N/N=C/c1ccc(Cl)cc1` [Robenidine, reference compound], the “agonist activity in the cAMP accumulation assay / Gi/o activation (in words)” value in experiment [4] (D2S expressed in HEK cells) is listed as “could not observe any activation; also recorded: did not show any activation”. Moreover, the Emax in experiment [4] (HEK293, D2S expressed in HEK cells, read-out: Inhibition of forskolin-stimulated cAMP accumulation Emax (%)) is under 5%. For the same compound, in experiment [3], the Emax was under 7% and the “β-arrestin recruitment (in words)” value is on record as “could not observe any activation; also recorded: did not show any activation”. In experiment [2], the “binding affinity (in words)” value is “low micromolar range”. Besides, the pKi in experiment [1] is 5.27.

As for `C=CC(C)(C)[C@@]12C[C@H]3C(=O)N/C(=C/c4c[nH]cn4)C(=O)N3[C@@H]1Nc1ccccc12` [Roquefortine C], the pKi in experiment [1] was under 4.00.

Turning to `CC1NCCc2cc(O)c(O)cc21` (stereo not shown) [Salsolinol], in experiment [4] (D2S expressed in HEK cells), the “agonist activity in the cAMP accumulation assay / Gi/o activation (in words)” value is recorded as “weak partial agonists; also recorded: partial agonism in Gi/o activation” and the “Inhibition of forskolin-stimulated cAMP accumulation Emax (%)” value is 21%. Further, the “Inhibition of forskolin-stimulated cAMP accumulation Emax (%)” value in experiment [4] (D2S expressed in HEK cells, listed as salsolinol) was “below 50%”. In addition, in experiment [3], the Emax is under 7% and the “β-arrestin recruitment (in words)” value was “did not show β-arrestin recruitment”.

In experiment [1], `O=C(O)c1cn(-c2ccc(F)cc2)c2cc(N3CCNCC3)c(F)cc2c1=O` [Sarafloxacin, reference compound] showed a pKi of under 4.00.
